In PubChem BioAssay (NCI):
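Five compound concentrations were applied to cells in 96-well plates for 48 hours; endpoints were derived by simple linear interpolation of the resulting dose-response curve. At the GI50, growth is halved. TGI marks complete inhibition of growth.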

What was measured:
Assay in all cases: NCI anticancer screen, dose series, 48 h
786-0 renal = system: 786-0 renal
A498 renal = system: A498 renal
A549 NSCLC = system: A549 NSCLC
ACHN renal = system: ACHN renal
BT-549 breast = system: BT-549 breast
CAKI-1 renal = system: CAKI-1 renal
CCRF-CEM leukemia = system: CCRF-CEM leukemia
COLO 205 colon = system: COLO 205 colon
DU-145 prostate = system: DU-145 prostate
EKVX NSCLC = system: EKVX NSCLC
HCC-2998 colon = system: HCC-2998 colon
HCT-116 colon = system: HCT-116 colon
HCT-15 colon = system: HCT-15 colon
HL-60(TB) leukemia = system: HL-60(TB) leukemia
HOP-62 NSCLC = system: HOP-62 NSCLC
HOP-92 NSCLC = system: HOP-92 NSCLC
HS 578T breast = system: HS 578T breast
HT29 colon = system: HT29 colon
IGROV1 ovarian = system: IGROV1 ovarian
K-562 leukemia = system: K-562 leukemia
KM12 colon = system: KM12 colon
LOX IMVI melanoma = system: LOX IMVI melanoma
M14 melanoma = system: M14 melanoma
MALME-3M melanoma = system: MALME-3M melanoma
MCF7 breast = system: MCF7 breast
MDA-MB-231 breast = system: MDA-MB-231 breast
MOLT-4 leukemia = system: MOLT-4 leukemia
NCI-H226 lung = system: NCI-H226 lung
NCI-H23 lung = system: NCI-H23 lung
NCI-H460 lung = system: NCI-H460 lung
NCI-H522 lung = system: NCI-H522 lung
NCI/ADR-RES ovarian = system: NCI/ADR-RES ovarian
OVCAR-3 ovarian = system: OVCAR-3 ovarian
OVCAR-4 ovarian = system: OVCAR-4 ovarian
OVCAR-5 ovarian = system: OVCAR-5 ovarian
OVCAR-8 ovarian = system: OVCAR-8 ovarian
PC-3 prostate = system: PC-3 prostate
RPMI-8226 leukemia = system: RPMI-8226 leukemia
SF-268 CNS = system: SF-268 CNS
SF-295 CNS = system: SF-295 CNS
SF-539 CNS = system: SF-539 CNS
SK-MEL-2 melanoma = system: SK-MEL-2 melanoma
SK-MEL-28 melanoma = system: SK-MEL-28 melanoma
SK-MEL-5 melanoma = system: SK-MEL-5 melanoma
SK-OV-3 ovarian = system: SK-OV-3 ovarian
SN12C renal = system: SN12C renal
SNB-19 CNS = system: SNB-19 CNS
SR leukemia = system: SR leukemia
SW-620 colon = system: SW-620 colon
T-47D breast = system: T-47D breast
TK-10 renal = system: TK-10 renal
U251 CNS = system: U251 CNS
UACC-257 melanoma = system: UACC-257 melanoma
UACC-62 melanoma = system: UACC-62 melanoma
UO-31 renal = system: UO-31 renal
RXF 393 renal = system: RXF 393 renal
SNB-75 CNS = system: SNB-75 CNS

Cc1nc2sc(C(=O)Nc3cccc(Cl)c3C)c(N)c2cc1C(O)c1ccccc1 (stereo unspecified)
GI50 (786-0 renal): 0.0667 µM | TGI (786-0 renal): 9.51 µM | GI50 (A498 renal): 0.0158 µM | TGI (A498 renal): 0.059 µM | GI50 (A549 NSCLC): 0.0614 µM | TGI (A549 NSCLC): > 50.1 µM | GI50 (ACHN renal): 0.0881 µM | TGI (ACHN renal): 14.8 µM | GI50 (BT-549 breast): 0.124 µM | TGI (BT-549 breast): 3 µM | GI50 (CAKI-1 renal): 0.0487 µM | TGI (CAKI-1 renal): 8.46 µM | GI50 (CCRF-CEM leukemia): 0.0392 µM | TGI (CCRF-CEM leukemia): > 100 µM | GI50 (COLO 205 colon): 0.0667 µM | TGI (COLO 205 colon): 1.37 µM | GI50 (DU-145 prostate): 0.0454 µM | TGI (DU-145 prostate): 8.5 µM | GI50 (EKVX NSCLC): 0.268 µM | TGI (EKVX NSCLC): 21.4 µM | GI50 (HCC-2998 colon): 0.106 µM | TGI (HCC-2998 colon): 2.36 µM | GI50 (HCT-116 colon): 0.0404 µM | TGI (HCT-116 colon): 10.9 µM | GI50 (HCT-15 colon): 0.033 µM | TGI (HCT-15 colon): 10.5 µM | GI50 (HL-60(TB) leukemia): 0.0289 µM | TGI (HL-60(TB) leukemia): 0.133 µM | GI50 (HOP-62 NSCLC): 0.0497 µM | TGI (HOP-62 NSCLC): 16.1 µM | GI50 (HOP-92 NSCLC): 2.31 µM | TGI (HOP-92 NSCLC): 14.2 µM | GI50 (HS 578T breast): 0.0239 µM | TGI (HS 578T breast): 0.497 µM | GI50 (HT29 colon): 0.0355 µM | TGI (HT29 colon): 8.35 µM | GI50 (IGROV1 ovarian): 0.0532 µM | TGI (IGROV1 ovarian): 12.7 µM | GI50 (K-562 leukemia): 0.0302 µM | TGI (K-562 leukemia): > 48.6 µM | GI50 (KM12 colon): 0.0372 µM | TGI (KM12 colon): 5.22 µM | GI50 (LOX IMVI melanoma): 0.0599 µM | TGI (LOX IMVI melanoma): 10.9 µM | GI50 (M14 melanoma): 0.0291 µM | TGI (M14 melanoma): 13.1 µM | GI50 (MALME-3M melanoma): 0.0536 µM | TGI (MALME-3M melanoma): 18.5 µM | GI50 (MCF7 breast): 0.0332 µM | TGI (MCF7 breast): 11.3 µM | GI50 (MDA-MB-231 breast): 0.0834 µM | TGI (MDA-MB-231 breast): 6.95 µM | GI50 (MOLT-4 leukemia): 0.0673 µM | TGI (MOLT-4 leukemia): 19.7 µM | GI50 (NCI-H226 lung): 1.19 µM | TGI (NCI-H226 lung): 22.8 µM | GI50 (NCI-H23 lung): 0.0634 µM | TGI (NCI-H23 lung): 12.9 µM | GI50 (NCI-H460 lung): 0.0347 µM | TGI (NCI-H460 lung): 0.486 µM | GI50 (NCI-H522 lung): 0.0278 µM | TGI (NCI-H522 lung): 1.77 µM | GI50 (NCI/ADR-RES ovarian): 0.0318 µM | TGI (NCI/ADR-RES ovarian): 1.64 µM | GI50 (OVCAR-3 ovarian): 0.0351 µM | TGI (OVCAR-3 ovarian): 1.14 µM | GI50 (OVCAR-4 ovarian): 0.246 µM | TGI (OVCAR-4 ovarian): 26.7 µM | GI50 (OVCAR-5 ovarian): 0.14 µM | TGI (OVCAR-5 ovarian): 46.5 µM | GI50 (OVCAR-8 ovarian): 0.0512 µM | TGI (OVCAR-8 ovarian): 35.3 µM | GI50 (PC-3 prostate): 0.0439 µM | TGI (PC-3 prostate): 24.4 µM | GI50 (RPMI-8226 leukemia): 0.0388 µM | TGI (RPMI-8226 leukemia): 3.05 µM | GI50 (SF-268 CNS): 0.318 µM | TGI (SF-268 CNS): 11.7 µM | GI50 (SF-295 CNS): 0.0333 µM | TGI (SF-295 CNS): 5.08 µM | GI50 (SF-539 CNS): 0.0253 µM | TGI (SF-539 CNS): 0.0805 µM | GI50 (SK-MEL-2 melanoma): 0.0754 µM | TGI (SK-MEL-2 melanoma): 12.6 µM | GI50 (SK-MEL-28 melanoma): 1.6 µM | TGI (SK-MEL-28 melanoma): 23.1 µM | GI50 (SK-MEL-5 melanoma): 0.0528 µM | TGI (SK-MEL-5 melanoma): 1.11 µM | GI50 (SK-OV-3 ovarian): 0.0697 µM | TGI (SK-OV-3 ovarian): 33.4 µM | GI50 (SN12C renal): 0.067 µM | TGI (SN12C renal): 6.73 µM | GI50 (SNB-19 CNS): 0.0604 µM | TGI (SNB-19 CNS): 29.1 µM | GI50 (SR leukemia): 0.021 µM | TGI (SR leukemia): 16.6 µM | GI50 (SW-620 colon): 0.0331 µM | TGI (SW-620 colon): 15.4 µM | GI50 (T-47D breast): 0.0396 µM | TGI (T-47D breast): 57.6 µM | GI50 (TK-10 renal): 2.04 µM | TGI (TK-10 renal): 25.6 µM | GI50 (U251 CNS): 0.039 µM | TGI (U251 CNS): 13.8 µM | GI50 (UACC-257 melanoma): 1.27 µM | TGI (UACC-257 melanoma): 22.9 µM | GI50 (UACC-62 melanoma): 0.087 µM | TGI (UACC-62 melanoma): 12 µM | GI50 (UO-31 renal): 0.0985 µM | TGI (UO-31 renal): 12.6 µM

Nc1ncc(-c2ccc3ncnc(N4CCc5cc(F)c(Cl)cc54)c3c2)cc1C(F)(F)F
GI50 (786-0 renal): 1.04 µM | TGI (786-0 renal): 4.79 µM | GI50 (A549 NSCLC): 1.56 µM | TGI (A549 NSCLC): > 100 µM | GI50 (ACHN renal): 0.784 µM | TGI (ACHN renal): > 100 µM | GI50 (BT-549 breast): 1.07 µM | TGI (BT-549 breast): 8.33 µM | GI50 (CCRF-CEM leukemia): 2.68 µM | TGI (CCRF-CEM leukemia): > 100 µM | GI50 (DU-145 prostate): 1.8 µM | TGI (DU-145 prostate): > 100 µM | GI50 (HCC-2998 colon): 2.13 µM | TGI (HCC-2998 colon): > 100 µM | GI50 (HCT-116 colon): 2.08 µM | TGI (HCT-116 colon): > 100 µM | GI50 (HCT-15 colon): 1.57 µM | TGI (HCT-15 colon): > 100 µM | GI50 (HL-60(TB) leukemia): 0.981 µM | TGI (HL-60(TB) leukemia): > 100 µM | GI50 (HOP-62 NSCLC): 3.18 µM | TGI (HOP-62 NSCLC): > 100 µM | GI50 (HS 578T breast): 0.298 µM | TGI (HS 578T breast): 2.54 µM | GI50 (HT29 colon): 1.97 µM | TGI (HT29 colon): > 100 µM | GI50 (K-562 leukemia): 1.61 µM | TGI (K-562 leukemia): > 100 µM | GI50 (KM12 colon): 2.47 µM | TGI (KM12 colon): > 100 µM | GI50 (M14 melanoma): 2.74 µM | TGI (M14 melanoma): > 100 µM | GI50 (MALME-3M melanoma): 1.44 µM | TGI (MALME-3M melanoma): > 100 µM | GI50 (MOLT-4 leukemia): 2.13 µM | TGI (MOLT-4 leukemia): > 100 µM | GI50 (NCI-H23 lung): 2.93 µM | TGI (NCI-H23 lung): > 100 µM | GI50 (NCI-H460 lung): 1.39 µM | TGI (NCI-H460 lung): > 100 µM | GI50 (NCI-H522 lung): 2.01 µM | TGI (NCI-H522 lung): > 100 µM | GI50 (NCI/ADR-RES ovarian): 2.05 µM | TGI (NCI/ADR-RES ovarian): > 100 µM | GI50 (OVCAR-3 ovarian): 1.39 µM | TGI (OVCAR-3 ovarian): > 100 µM | GI50 (OVCAR-4 ovarian): 1.74 µM | TGI (OVCAR-4 ovarian): 27.9 µM | GI50 (OVCAR-5 ovarian): 1.23 µM | TGI (OVCAR-5 ovarian): > 100 µM | GI50 (OVCAR-8 ovarian): 2.34 µM | TGI (OVCAR-8 ovarian): > 100 µM | GI50 (PC-3 prostate): 1.44 µM | TGI (PC-3 prostate): > 100 µM | GI50 (RPMI-8226 leukemia): 2.33 µM | TGI (RPMI-8226 leukemia): > 100 µM | GI50 (RXF 393 renal): 0.274 µM | TGI (RXF 393 renal): 1.53 µM | GI50 (SF-268 CNS): 1.24 µM | TGI (SF-268 CNS): > 100 µM | GI50 (SF-295 CNS): 2.03 µM | TGI (SF-295 CNS): > 100 µM | GI50 (SK-MEL-2 melanoma): 2.84 µM | TGI (SK-MEL-2 melanoma): > 100 µM | GI50 (SK-MEL-28 melanoma): 2.04 µM | TGI (SK-MEL-28 melanoma): > 100 µM | GI50 (SK-OV-3 ovarian): 2.15 µM | TGI (SK-OV-3 ovarian): > 100 µM | GI50 (SN12C renal): 0.754 µM | TGI (SN12C renal): > 100 µM | GI50 (SNB-19 CNS): 2.62 µM | TGI (SNB-19 CNS): > 100 µM | GI50 (SNB-75 CNS): 0.308 µM | TGI (SNB-75 CNS): 3.59 µM | GI50 (SR leukemia): 1.67 µM | TGI (SR leukemia): > 100 µM | GI50 (SW-620 colon): 1.95 µM | TGI (SW-620 colon): > 100 µM | GI50 (T-47D breast): 1.07 µM | TGI (T-47D breast): > 100 µM | GI50 (U251 CNS): 3.5 µM | TGI (U251 CNS): > 100 µM | GI50 (UACC-257 melanoma): 2.08 µM | TGI (UACC-257 melanoma): > 100 µM | GI50 (UO-31 renal): 0.33 µM | TGI (UO-31 renal): > 100 µM
